Data reported in US10385019B2, “Inhibitors of EGFR and methods of use thereof” (Dana-Farber Cancer Institute, Inc., priority 2015, dated 2019).
Where two headings read alike, the source gives them in different places.

Tests used:
Assay in all cases: Ba/F3 cell proliferation model
Format in all cases: cell-based, murine
[1] = biological target: EGFR T790M/L858R Ba/F3 cell line (Homo sapiens, UniProt P00533, T790M/L858R, cells depend on it); details: for Activity (% inhibition): combined with cetuximab (% cetuximab, 1.0 μM drug concentration with 1.0 μg/mL cetuximab)
Chain of EGFR T790M/L858R Ba/F3 cell line (P00533 whole entry T790M/L858R): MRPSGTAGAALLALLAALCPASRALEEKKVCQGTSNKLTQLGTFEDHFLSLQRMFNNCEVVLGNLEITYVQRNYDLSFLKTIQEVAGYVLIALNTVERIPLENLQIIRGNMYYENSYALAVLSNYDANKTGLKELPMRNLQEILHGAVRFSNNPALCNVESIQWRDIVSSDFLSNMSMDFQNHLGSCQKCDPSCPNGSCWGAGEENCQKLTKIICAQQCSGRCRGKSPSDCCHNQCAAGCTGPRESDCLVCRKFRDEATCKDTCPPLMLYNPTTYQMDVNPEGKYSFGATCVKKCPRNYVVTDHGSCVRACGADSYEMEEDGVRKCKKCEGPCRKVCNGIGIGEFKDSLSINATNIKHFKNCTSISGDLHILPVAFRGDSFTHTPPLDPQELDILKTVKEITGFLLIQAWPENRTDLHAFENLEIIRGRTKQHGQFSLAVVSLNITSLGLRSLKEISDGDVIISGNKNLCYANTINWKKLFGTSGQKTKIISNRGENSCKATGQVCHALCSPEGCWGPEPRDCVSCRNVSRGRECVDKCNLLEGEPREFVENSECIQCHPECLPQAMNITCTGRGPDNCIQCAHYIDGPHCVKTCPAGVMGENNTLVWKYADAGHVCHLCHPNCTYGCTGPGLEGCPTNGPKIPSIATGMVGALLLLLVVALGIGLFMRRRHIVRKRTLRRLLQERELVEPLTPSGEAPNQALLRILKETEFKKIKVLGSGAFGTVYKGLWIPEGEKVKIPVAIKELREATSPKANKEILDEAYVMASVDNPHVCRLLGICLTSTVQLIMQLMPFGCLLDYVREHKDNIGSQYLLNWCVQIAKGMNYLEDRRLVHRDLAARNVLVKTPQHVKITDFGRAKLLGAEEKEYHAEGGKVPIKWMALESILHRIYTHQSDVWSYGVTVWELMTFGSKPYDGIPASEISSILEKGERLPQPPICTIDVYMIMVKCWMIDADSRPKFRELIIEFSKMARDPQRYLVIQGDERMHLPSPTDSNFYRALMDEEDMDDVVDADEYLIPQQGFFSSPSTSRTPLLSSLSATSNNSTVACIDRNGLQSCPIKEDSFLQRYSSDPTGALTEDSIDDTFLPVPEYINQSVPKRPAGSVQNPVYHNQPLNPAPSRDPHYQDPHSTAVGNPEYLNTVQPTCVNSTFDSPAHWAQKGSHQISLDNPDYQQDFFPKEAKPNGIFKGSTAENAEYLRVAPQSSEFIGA
Summary of the method: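 Murine Ba/F3 cells made IL-3-independent by retroviral EGFR L858R/T790M, selected in puromycin (2 μg/ml) and kept in RPMI 1640 with 10% FBS. Cells were exposed to serially diluted compound for 72 h, with growth read by MTS assay in six wells per point and ≥3 repeats. Sigmoidal dose-response non-linear regression gave the values.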

[2] = biological target: Del/T790M Ba/F3 cell line (Homo sapiens, UniProt P00533, DEL746-750/T790M, cells depend on it)
Chain of Del/T790M Ba/F3 cell line (P00533 with tags, fused parts or gaps DEL746-750/T790M): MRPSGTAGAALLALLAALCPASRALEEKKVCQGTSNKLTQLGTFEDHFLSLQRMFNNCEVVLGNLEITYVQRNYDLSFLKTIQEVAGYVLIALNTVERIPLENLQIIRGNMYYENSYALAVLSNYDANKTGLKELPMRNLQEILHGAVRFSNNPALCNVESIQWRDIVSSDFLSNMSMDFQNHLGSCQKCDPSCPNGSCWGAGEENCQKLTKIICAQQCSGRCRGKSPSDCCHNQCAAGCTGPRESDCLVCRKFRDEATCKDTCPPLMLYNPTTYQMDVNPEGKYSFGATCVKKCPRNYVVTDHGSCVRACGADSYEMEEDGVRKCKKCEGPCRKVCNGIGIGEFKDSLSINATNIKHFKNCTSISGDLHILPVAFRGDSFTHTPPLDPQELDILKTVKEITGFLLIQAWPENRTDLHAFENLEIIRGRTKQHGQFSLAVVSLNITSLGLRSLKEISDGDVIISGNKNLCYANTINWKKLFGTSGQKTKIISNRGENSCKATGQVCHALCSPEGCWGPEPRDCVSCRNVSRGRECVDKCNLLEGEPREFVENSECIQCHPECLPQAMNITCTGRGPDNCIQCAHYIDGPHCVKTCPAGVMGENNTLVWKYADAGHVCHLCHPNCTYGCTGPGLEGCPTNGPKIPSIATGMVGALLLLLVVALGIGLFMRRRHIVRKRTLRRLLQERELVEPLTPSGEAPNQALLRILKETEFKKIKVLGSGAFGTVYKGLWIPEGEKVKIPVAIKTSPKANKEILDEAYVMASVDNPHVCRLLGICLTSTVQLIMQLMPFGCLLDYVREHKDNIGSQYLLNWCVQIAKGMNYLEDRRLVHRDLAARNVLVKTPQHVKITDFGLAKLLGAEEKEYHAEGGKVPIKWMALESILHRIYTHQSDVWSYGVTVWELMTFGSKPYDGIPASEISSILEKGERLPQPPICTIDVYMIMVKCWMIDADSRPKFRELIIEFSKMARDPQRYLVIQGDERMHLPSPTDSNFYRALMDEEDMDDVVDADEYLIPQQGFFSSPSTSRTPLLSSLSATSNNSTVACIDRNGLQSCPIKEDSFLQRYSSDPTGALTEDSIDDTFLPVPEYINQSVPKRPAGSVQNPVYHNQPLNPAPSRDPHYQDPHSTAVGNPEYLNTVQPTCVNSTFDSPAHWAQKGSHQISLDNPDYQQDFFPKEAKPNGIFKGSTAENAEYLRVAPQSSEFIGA
Text: (§1) The selectivity between wild-type EGFR and EGFR containing one or more mutations as described herein can also be measured using cellular proliferation assays where cell proliferation is dependent on kinase activity. For example, murine Ba/F3 cells transfected with a suitable version of wild-type EGFR (such as VIII; containing a WT EGFR kinase domain), or Ba/F3 cells transfected with L858R/T790M, Del/T790M/L718Q, L858R/T790M/L718Q, L858R/T790M/C797S, Del/T790M/C797S, L858R/T790M/I941R, or Exon 19 deletion/T790M can be used.
(§2) Cell lines are plated in media. The compounds of the present disclosure are then serially diluted and transferred to the cells. Cell viability is measured via a luminescent readout. Data is analyzed by non-linear regression curve-fitting.
(§3) The EGFR mutant L858R, Del E746_A750, L858R/T790M, DelE746_A750/T790M, L858R/T790M/C797S and Del/T790M/C797S Ba/F3 cells have been previously described (Zhou, W., Ercan, D., Chen, L., Yun, C. H., Li, D., Capelletti, M., Cortot, A. B., Chirieac, L., Iacob, R. E., Padera, R., et al. “Novel mutant-selective EGFR kinase inhibitors against EGFR T790M,” Nature 462, (2009), 1070-1074). All cell lines were maintained in RPMI 1640 (Cellgro; Mediatech Inc., Herndon, Calif.) supplemented with 10% FBS 100 units/mL penicillin, 100 units/mL streptomycin, and 2 mM glutamine. L858R cells were maintained in ACL-4 media (Invitrogen, Carlsbad, Calif.) supplemented with 5% FBS, 100 units/mL penicillin, 100 units/mL streptomycin, and 2 mM glutamine. The EGFR I941R mutation was introduced via site directed mutagenesis using the Quick Change Site-Directed Mutagenesis kit (Stratagene; La Jolla, Calif.) according to the manufacturer's instructions. All constructs were confirmed by DNA sequencing. The constructs were shuttled into the retroviral vector JP 1540 using the BD Creator™ System (BD Biosciences). Ba/F3 cells were infected with retrovirus and according to standard protocols, as described previously (Zhou et al, Nature 2009). Stable clones were obtained by selection in puromycin (2 μg/ml).
(§4) Growth and inhibition of growth was assessed by MTS assay and was performed according to previously established methods (Zhou et al., Nature 2009). The MTS assay is a colorimetric method for determining the number of viable cells that is based on the bioreduction of MTS by cells to a formazan product that is soluble in cell culture medium and can be detected spectrophotometrically. Ba/F3 cells of different EGFR genotypes were exposed to treatment for 72 hours and the number of cells used per experiment determined empirically and has been previously established (Zhou et al., Nature 2009). All experimental points were set up in six wells and all experiments were repeated at least three times. […] The curves were fitted using a non-linear regression model with a sigmoidal dose response.

[3] = tested on: EGFR Parental Ba/F3 cell line; details: Mus musculus, BaF3; compound alone
Text: as §1, §2, §3, §4

O=C(Nc1nccs1)[C@@H](c1ccccc1)N1Cc2ccc(-c3ccc(N4CCNCC4)cc3)cc2C1=O [Compound I-68, (R)-2-(1-oxo-6-(4-(piperazin-1-yl)phenyl)isoindolin-2-yl)-2-phenyl-N-(thiazol-2-yl)acetamide]
Activity (% inhibition) [1]: D (a % inhibition of between about 0% to about 25%) | GI50 ([1]; compound alone, read-out: L858R/T790M IC50): 1000 to 10000 nM | GI50 ([1]; read-out: L858R/T790M Cetuximab IC50, in combination with Cetuximab): < 500 nM | GI50 ([2]; compound alone, read-out: Del/T790M IC50): 1000 to 10000 nM | GI50 ([2]; read-out: Del/T790M Cetuximab IC50, in combination with Cetuximab): 1000 to 10000 nM | IC50 [3]: 1000 to 10000 nM

O=C(Nc1nccs1)[C@H](c1ccccc1)N1Cc2ccccc2C1=O [Compound I-21, (S)-2-(1-oxoisoindolin-2-yl)-2-phenyl-N-(thiazol-2-yl) acetamide]
Activity (% inhibition) [1]: B (a % inhibition of between about 50% to about 75%)

O=C(Nc1ccccc1)[C@@H](c1ccccc1)N1Cc2ccccc2C1=O [Compound I-51, (R)-2-(1-oxoisoindolin-2-yl)-N,2-diphenylacetamide]
Activity (% inhibition) [1]: A (a % inhibition of about 75%)

C[C@H](C(=O)Nc1nccs1)N1Cc2ccc(-c3ccc(N4CCN(C(=O)OC(C)(C)C)CC4)cc3)cc2C1=O [Compound I-117, tert-butyl (R)-4-(4-(3-oxo-2-(1-oxo-1-(thiazol-2-ylamino)propan-2-yl)isoindolin-5-yl)phenyl)piperazine-1-carboxylate]
Activity (% inhibition) [1]: A (a % inhibition of about 75%)

Cc1csc(NC(=O)[C@@H](c2ccccc2)N2Cc3ccccc3C2=O)n1 [Compound I-5, (R)-N-(4-methylthiazol-2-yl)-2-(1-oxoisoindolin-2-yl)-2-phenylacetamide]
Activity (% inhibition) [1]: A (a % inhibition of about 75%)

O=C(NCC(O)CO)c1cc(N[C@@H](C(=O)Nc2nccs2)c2ccccc2)ccc1[N+](=O)[O-] (stereo partly drawn) [Compound I-110, N-(2,3-dihydroxypropyl)-2-nitro-5-(((R)-2-oxo-1-phenyl-2-(thiazol-2-ylamino)ethyl)amino)benzamide]
Activity (% inhibition) [1]: A (a % inhibition of about 75%)

CN(C)CCCCNC(=O)c1csc(NC(=O)[C@@H](c2ccccc2)N2Cc3ccccc3C2=O)n1 [Compound I-15, (R)-N-(4-(dimethylamino)butyl)-2-(2-(1-oxoisoindolin-2-yl)-2-phenylacetamido)thiazole-4-carboxamide]
Activity (% inhibition) [1]: A (a % inhibition of about 75%)

Nc1cccc([C@H](C(=O)Nc2nccs2)N2Cc3ccccc3C2=O)c1 [Compound I-38, (R)-2-(3-aminophenyl)-2-(1-oxoisoindolin-2-yl)-N-(thiazol-2-yl)acetamide]
Activity (% inhibition) [1]: A (a % inhibition of about 75%)

O=C(NCCN1CCOCC1)c1cccc(-c2ccc3c(c2)C(=O)N([C@@H](C(=O)Nc2nccs2)c2ccccc2)C3)c1 [Compound I-90, (R)-N-(2-morpholinoethyl)-3-(3-oxo-2-(2-oxo-1-phenyl-2-(thiazol-2-ylamino)ethyl)isoindolin-5-yl)benzamide]
Activity (% inhibition) [1]: C (a % inhibition of between about 25% to about 50%)

O=C(Nc1nccs1)[C@@H](c1ccccc1)N1Cc2ccc(Nc3ccccc3)cc2C1=O [Compound I-98, (R)-2-(1-oxo-6-(phenylamino)isoindolin-2-yl)-2-phenyl-N-(thiazol-2-yl)acetamide]
Activity (% inhibition) [1]: C (a % inhibition of between about 25% to about 50%)

COC(=O)c1cc(Br)ccc1N[C@H](C(=O)Nc1nccs1)c1ccccc1 [Compound I-107, methyl (S)-5-bromo-2-((2-oxo-1-phenyl-2-(thiazol-2-ylamino)ethyl)amino)benzoate]
Activity (% inhibition) [1]: B (a % inhibition of between about 50% to about 75%)

O=C(Nc1cc(C2CC2)n[nH]1)[C@@H](c1ccccc1)N1Cc2ccccc2C1=O [Compound I-26, (R)-N-(3-cyclopropyl-1H-pyrazol-5-yl)-2-(1-oxoisoindolin-2-yl)-2-phenylacetamide]
Activity (% inhibition) [1]: A (a % inhibition of about 75%)

O=C(Nc1cc(F)ccc1F)[C@@H](c1ccccc1)N1Cc2ccccc2C1=O [Compound I-53, (R)-N-(2,5-difluorophenyl)-2-(1-oxoisoindolin-2-yl)-2-phenylacetamide]
Activity (% inhibition) [1]: A (a % inhibition of about 75%)

O=C(Nc1nccs1)[C@@H](c1ccccc1)N1Cc2ccc(-c3ccsc3)cc2C1=O [Compound I-47, (R)-2-(1-oxo-6-(thiophen-3-yl)isoindolin-2-yl)-2-phenyl-N-(thiazol-2-yl)acetamide]
Activity (% inhibition) [1]: B (a % inhibition of between about 50% to about 75%)

O=C(Nc1nccs1)[C@@H](c1ccccc1)N1Cc2cc(Nc3cccc(F)c3)ccc2C1=O [Compound I-97, (R)-2-(5-((3-fluorophenyl)amino)-1-oxoisoindolin-2-yl)-2-phenyl-N-(thiazol-2-yl)acetamide]
Activity (% inhibition) [1]: A (a % inhibition of about 75%)

O=C(Nc1ncco1)[C@H](c1ccccc1)N1Cc2ccccc2C1=O [Compound I-20, (S)-N-(oxazol-2-yl)-2-(1-oxoisoindolin-2-yl)-2-phenylacetamide]
Activity (% inhibition) [1]: A (a % inhibition of about 75%)

O=C(Nc1nccs1)[C@@H](c1ccccc1)N1Cc2ccc(-c3ccc(F)cc3)cc2C1=O [Compound I-77, (R)-2-(6-(4-fluorophenyl)-1-oxoisoindolin-2-yl)-2-phenyl-N-(thiazol-2-yl)acetamide]
Activity (% inhibition) [1]: B (a % inhibition of between about 50% to about 75%)

O=C(Nc1nccs1)[C@@H](c1ccccc1)N1Cc2cc(Nc3ccccc3)ccc2C1=O [Compound I-93, (R)-2-(1-oxo-5-(phenylamino)isoindolin-2-yl)-2-phenyl-N-(thiazol-2-yl)acetamide]
Activity (% inhibition) [1]: A (a % inhibition of about 75%)

O=C(Nc1nccs1)C(c1ccccn1)N1Cc2ccc(-c3ccc(N4CCNCC4)cc3)cc2C1=O (centres unmarked) [Compound I-124, 2-(1-oxo-6-(4-(piperazin-1-yl)phenyl)isoindolin-2-yl)-2-(pyridin-2-yl)-N-(thiazol-2-yl)acetamide]
Activity (% inhibition) [1]: D (a % inhibition of between about 0% to about 25%)

O=C(Nc1cc(C(F)(F)F)n[nH]1)[C@@H](c1ccccc1)N1Cc2ccccc2C1=O [Compound I-30, (R)-2-(1-oxoisoindolin-2-yl)-2-phenyl-N-(3-(trifluoromethyl)-1H-pyrazol-5-yl)acetamide]
Activity (% inhibition) [1]: A (a % inhibition of about 75%)

CN1CCN(C(=O)c2csc(NC(=O)[C@@H](c3ccccc3)N3Cc4ccccc4C3=O)n2)CC1 [Compound I-25, (R)-N-(4-(4-methylpiperazine-1-carbonyl)thiazol-2-yl)-2-(1-oxoisoindolin-2-yl)-2-phenylacetamide]
Activity (% inhibition) [1]: A (a % inhibition of about 75%)

Cc1cccc(C)c1NC(=O)[C@@H](c1ccccc1)N1Cc2ccccc2C1=O [Compound I-54, (R)-N-(2,6-dimethylphenyl)-2-(1-oxoisoindolin-2-yl)-2-phenylacetamide]
Activity (% inhibition) [1]: A (a % inhibition of about 75%)

O=C(Nc1nccs1)[C@@H](c1ccccc1)N1Cc2ccc(-c3ccc(OC(F)(F)F)cc3)cc2C1=O [Compound I-74, (R)-2-(1-oxo-6-(4-(trifluoromethoxy)phenyl)isoindolin-2-yl)-2-phenyl-N-(thiazol-2-yl)acetamide]
Activity (% inhibition) [1]: B (a % inhibition of between about 50% to about 75%)

O=C(Nc1ccncc1)[C@@H](c1ccccc1)N1Cc2ccccc2C1=O [Compound I-8, (R)-2-(1-oxoisoindolin-2-yl)-2-phenyl-N-(pyridin-4-yl) acetamide]
Activity (% inhibition) [1]: A (a % inhibition of about 75%)
